The text below walks through data of patent US6503935B1, “Imidazoles and related compounds as α1A agonists” (Abbott Laboratories, priority 1998, dated 2003).

Usually pKi stands for the negative decadic logarithm of the Ki, by convention in mol/L.

pKi: −log10 of the molar value. Counter-ions that a name gives are not always drawn. Like-named read-outs stand apart in the source and are kept apart here. Bounds are passed on as bounds.

Data set [1] deals with Anesthetized Dogs. The data set can be described thus: Mean arterial pressure (MAP) in anesthetized dogs. The format is in vivo, dog. Particulars: iv dose causing a maximum increase in MAP of 20 mm Hg, anesthetized female dogs. From the text:
(§1) In vivo Functional Assays-Assessment of Intrurethral Pressure (IUP) and Mean Arterial Pressure (MAP) in Anesthetized Dogs
(§2) Female dogs (Marshall Farms, North Rose, N.Y.) greater that 2 years of age and weighing between 12 and 15 kg were used in these studies. At least 2 weeks prior to any agonist dosing, dogs were instrumented for the chronic measurement of arterial blood pressure by implanting a telemetry transducer/transmitter (TA11PA-C40, Data Sciences International, St. Paul, Minn.) into a carotid artery.
(§3) On the test day, dogs fasted since the previous afternoon were pre-anesthetized with thiopental sodium 15 mg/kg i.v. (Pentothal™, Abbott) and intubated. Anesthesia was maintained by allowing the dog to spontaneously breathe a mixture of isoflurane (2.5 to 3 volume %) and oxygen delivered by a Narkomed Standard anesthesia system (North American Drager, Telford, Pa.). An Abbocath-T™ i.v. catheter (18-G, Abbott) was inserted into the cephalic vein for the administration of agonists. A telemetry receiver (RA1310, DataSciences) was placed under the head of each dog and was interfaced to a computerized data acquisition system (Modular Instruments Inc.(MI2), Malvern, Pa.) which allowed for the continuous calibrated recording of arterial blood pressure which was electronically filtered to determine its mean value (MAP).
(§4) Dogs with chronic telemetry implants anesthetized as described above were placed in dorsal recumbency and a balloon catheter was inserted into the urethral orifice and advanced approximately 15 cm until the tip was well inside the bladder. The balloon was then inflated with 1 ml of room air and the catheter slowly withdrawn until resistance (corresponding to the bladder neck) was evident. The balloon was then deflated and the catheter withdrawn an additional 2 cm. The balloon was then reinflated and its catheter port connected to a Gould Statham P23Dd pressure transducer interfaced to a computerized data acquisition system (Modular Instruments, Inc., Malvern, Pa.) for the measurement of intraurethral pressure. Increasing iv doses of test agonists were administered and the maximum effect of each dose on IUP was recorded. The effect of each dose was allowed to return to baseline before the next dose was given.
(§5) From the resulting dose response curve, an ED5 value, for the dose causing a maximum increase in IUP of 5 mm Hg, could be estimated. An ED20 value for the dose causing a maximum increase in MAP of 20 mm Hg could also be estimated. A selectivity ratio of MAP ED20 vs. IUP ED5 was calculated.

For data set [2], the system named is Anesthetized Dogs. Description: Intraurethral pressure (IUP) in anesthetized dogs. The format is in vivo, dog. Particulars: Canis lupus familiaris; iv dose causing a maximum increase in IUP of 5 mm Hg, anesthetized female dogs; read-out: Mean IUP ED5.
The next data set deals with T1, α1D (rat aorta) (Rattus norvegicus, UniProt P23944).
T1 construct: α1B (rat spleen) and α1D (rat aorta) receptors; from tissue; host or cells: rat aorta strips, endothelium removed
T1 sequence (P23944 1-561): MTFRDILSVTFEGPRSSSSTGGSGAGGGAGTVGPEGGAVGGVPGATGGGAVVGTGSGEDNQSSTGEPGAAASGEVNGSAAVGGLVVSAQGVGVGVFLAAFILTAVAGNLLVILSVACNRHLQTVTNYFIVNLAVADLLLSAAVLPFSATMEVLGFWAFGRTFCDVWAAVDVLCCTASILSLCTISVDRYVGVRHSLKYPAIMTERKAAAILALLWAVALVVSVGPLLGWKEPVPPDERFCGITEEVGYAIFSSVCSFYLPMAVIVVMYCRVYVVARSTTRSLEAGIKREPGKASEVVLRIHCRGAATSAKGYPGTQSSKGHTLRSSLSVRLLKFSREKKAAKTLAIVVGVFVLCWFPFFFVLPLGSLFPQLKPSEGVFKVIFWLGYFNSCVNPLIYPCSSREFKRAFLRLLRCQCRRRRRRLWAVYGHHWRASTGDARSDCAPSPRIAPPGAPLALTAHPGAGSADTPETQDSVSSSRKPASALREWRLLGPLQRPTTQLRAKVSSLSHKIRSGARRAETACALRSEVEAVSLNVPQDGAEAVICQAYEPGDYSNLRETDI
The data set can be described thus: Agonist contraction of smooth muscle tissue, rat aorta. Particulars: rat aorta, endothelium removed; read-out: Agonist Tissue Response (pD2) α1D (rat aorta) (converted). Type of data set: cell-based.

The target of another data set is T2, α1A (rabbit urethra) (Oryctolagus cuniculus, UniProt O02824).
T2 construct: tested for α1A functional activity using rabbit urethra; from tissue; host or cells: rabbit urethra
T2 sequence (O02824 1-466): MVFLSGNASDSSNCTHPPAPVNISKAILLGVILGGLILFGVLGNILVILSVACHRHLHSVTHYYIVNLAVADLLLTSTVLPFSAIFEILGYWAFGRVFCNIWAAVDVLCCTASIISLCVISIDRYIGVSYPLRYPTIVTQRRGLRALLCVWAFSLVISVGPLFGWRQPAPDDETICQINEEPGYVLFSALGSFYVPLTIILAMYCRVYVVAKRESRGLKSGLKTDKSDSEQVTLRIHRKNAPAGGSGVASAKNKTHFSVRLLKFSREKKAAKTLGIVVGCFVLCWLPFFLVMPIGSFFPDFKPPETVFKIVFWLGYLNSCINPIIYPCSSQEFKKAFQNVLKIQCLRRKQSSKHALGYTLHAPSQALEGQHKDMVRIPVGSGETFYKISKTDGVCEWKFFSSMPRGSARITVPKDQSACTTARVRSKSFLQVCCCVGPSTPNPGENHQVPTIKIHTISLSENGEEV
Description: Agonist contraction of smooth muscle tissue, rabbit urethra. Particulars: rabbit urethra; read-out: Agonist Tissue Response (pD2) α1A (rab ureth) (converted). The format is cell-based. The protocol: Most of the compounds were tested for α1A functional activity using rabbit urethra as follows. Female New Zealand white rabbits (2.0-3.5 Kg) were sedated with CO2 and decapitated. […] Subsequent experimental conditions were as described above for the other tissues. Agonist concentration response curves were cumulative except for the vas deferens assay in which the transient response made such measurements impractical.

In data set [3] the target is T3, α1A (rat submaxillary gland) (Rattus norvegicus, UniProt P43140).
T3 construct: α1A (rat submaxillary gland); from tissue; host or cells: rat submaxillary gland
T3 sequence (P43140 1-466): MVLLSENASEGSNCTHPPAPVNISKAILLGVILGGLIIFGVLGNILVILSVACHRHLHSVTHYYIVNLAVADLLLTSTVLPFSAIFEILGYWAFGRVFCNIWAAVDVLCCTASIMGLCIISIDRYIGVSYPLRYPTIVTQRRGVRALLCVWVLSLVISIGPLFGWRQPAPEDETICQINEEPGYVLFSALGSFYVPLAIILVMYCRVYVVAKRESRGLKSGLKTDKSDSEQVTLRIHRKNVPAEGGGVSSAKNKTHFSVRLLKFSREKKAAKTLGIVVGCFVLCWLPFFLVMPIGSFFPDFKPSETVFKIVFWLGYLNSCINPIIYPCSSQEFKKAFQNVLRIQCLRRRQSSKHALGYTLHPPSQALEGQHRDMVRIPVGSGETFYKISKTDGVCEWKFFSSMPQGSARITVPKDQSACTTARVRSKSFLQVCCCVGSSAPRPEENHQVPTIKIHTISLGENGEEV
Description: Radioligand binding with [3H]-prazosin, α1A. The settings on record: rat submaxillary gland, [3H]-prazosin. As to the method:
(§6) For purposes of discussing α1 adrenoceptor subtypes, the IUPHAR convention of using lower case letters to define molecular clones and upper case letters to indicate pharmacologically defined adrenoceptors has been followed. Compounds of formula I were evaluated in radioligand binding assays specific for α1A (rat submaxillary gland), α1b (hamster receptor expressed in mouse fibroblasts) and α1d (rat receptor expressed in mouse fibroblasts) using [^3H]-prazosin as the radioligand as described in Knepper, et al. J. Pharm.

In data set [4] the test system is Anesthetized Dogs. Description: Intraurethral pressure (IUP) in anesthetized dogs. Type of data set: in vivo, dog. Particulars: iv, anesthetized female dogs.
Source text: as §1, §2, §3, §4, §5

The target in another data set is T4, α1B (rat spleen) (Rattus norvegicus, UniProt P15823).
T4 construct: α1B (rat spleen) and α1D (rat aorta) receptors; from tissue; host or cells: rat spleen
T4 sequence (P15823 1-515): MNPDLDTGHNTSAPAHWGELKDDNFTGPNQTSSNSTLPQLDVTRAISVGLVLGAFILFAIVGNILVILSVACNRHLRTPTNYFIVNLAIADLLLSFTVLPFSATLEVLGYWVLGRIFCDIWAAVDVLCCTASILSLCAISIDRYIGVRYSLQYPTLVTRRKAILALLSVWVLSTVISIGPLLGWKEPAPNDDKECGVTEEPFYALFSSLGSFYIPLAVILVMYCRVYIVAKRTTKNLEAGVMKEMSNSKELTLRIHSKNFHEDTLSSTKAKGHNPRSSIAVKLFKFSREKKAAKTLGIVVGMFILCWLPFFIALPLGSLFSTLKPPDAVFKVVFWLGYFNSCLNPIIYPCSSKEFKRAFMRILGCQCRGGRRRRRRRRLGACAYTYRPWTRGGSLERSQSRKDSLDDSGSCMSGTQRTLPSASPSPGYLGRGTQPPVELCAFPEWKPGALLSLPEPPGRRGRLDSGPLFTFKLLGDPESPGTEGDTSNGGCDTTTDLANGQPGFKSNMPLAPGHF
The data set can be described thus: Agonist contraction of smooth muscle tissue, rat spleen. Type of data set: cell-based. Particulars: rat spleen; read-out: Agonist Tissue Response (pD2) α1B (rat spleen) (converted).

Data set [5] addresses T5, α1b (hamster receptor expressed in mouse fibroblasts) (Mesocricetus auratus, UniProt P18841).
T5 construct: expressed in transfected cells; host or cells: mouse fibroblasts
T5 sequence (P18841 1-515): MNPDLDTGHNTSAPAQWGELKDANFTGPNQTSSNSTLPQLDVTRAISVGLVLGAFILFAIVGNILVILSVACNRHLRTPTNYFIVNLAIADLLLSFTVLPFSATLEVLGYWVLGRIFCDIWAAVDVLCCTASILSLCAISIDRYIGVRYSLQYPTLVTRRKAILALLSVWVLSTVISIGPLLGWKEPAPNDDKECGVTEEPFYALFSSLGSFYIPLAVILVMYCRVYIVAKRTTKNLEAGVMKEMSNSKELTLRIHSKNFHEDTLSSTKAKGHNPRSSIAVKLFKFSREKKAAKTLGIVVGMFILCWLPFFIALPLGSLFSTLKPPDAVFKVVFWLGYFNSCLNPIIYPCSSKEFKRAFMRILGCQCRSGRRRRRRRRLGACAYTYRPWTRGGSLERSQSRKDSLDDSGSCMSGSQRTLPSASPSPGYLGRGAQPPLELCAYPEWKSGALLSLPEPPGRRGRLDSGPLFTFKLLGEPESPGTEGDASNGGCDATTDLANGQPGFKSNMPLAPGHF
Description: Radioligand binding with [3H]-prazosin, α1b. As to the method:
as §6

Data set [6] addresses T6, α1d (rat receptor expressed in mouse fibroblasts) (Rattus norvegicus, UniProt P23944).
T6 construct: expressed in transfected cells; host or cells: mouse fibroblasts
T6 sequence (P23944 1-561): T1 sequence (P23944 1-561)
The data set can be described thus: Radioligand binding with [3H]-prazosin, α1d. Particulars: Radioligand Binding Ki α1d (Rat), rat receptor expressed in mouse fibroblasts, [3H]-prazosin. As to the method:
as §6

On to `CCS(=O)(=O)Nc1cccc2c1CCC2c1c[nH]cn1.O=C(O)/C=C\C(=O)O` (stereo not shown) [Example 39, N-[1-(1H-imidazol4-yl)-2,3-dihydro-1H-inden-4-yl]ethanesulfonamide, maleate], for which, in the data set with Anesthetized Dogs [1], the “Mean MAP ED20” value came to 5.6 nmol/kg. The ED (5 mmHg IUP increase) in the data set with Anesthetized Dogs [2] came to 0.0044 µmol/kg.
Regarding `O=C(O)/C=C\C(=O)O.O=S(=O)(CC(F)(F)F)Nc1cccc2c1CCCC2c1c[nH]cn1` (stereo not shown) [Example 20, N-[5,6,7,8-tetrahydro-5-(1H-imidazol-4-yl)-1-naphthalenyl]-2,2,2-trifluoroethanesulfonamide, maleate], the EC50 at α1D (rat aorta) was > 1000 µM; at α1A (rabbit urethra) it was 2.82 µM; at α1B (rat spleen), > 1000 µM. The pKi in data set [3] was 6.60. Moreover, in the data set with Anesthetized Dogs [1], the “Mean MAP ED20” value came to 885 nmol/kg. Besides, the ED (5 mmHg IUP increase) with Anesthetized Dogs [4] (Canis lupus familiaris, iv dose causing a maximum increase in IUP of 5 mm Hg, read-out: Mean IUP ED5) was 0.209 µmol/kg. Besides, the “Mean Selectivity Ratio MAP ED20/IUP ED5” value with Anesthetized Dogs [4] was determined as 6.1.
With `CS(=O)(=O)Nc1cccc2c1CCC[C@H]2c1c[nH]cn1` [Example 9, (+)-N-[(5R)-5-(1H-imidazol-4-yl)-5,6,7,8-tetrahydro-1-naphthalenyl]methanesulfonamide], the “Mean MAP ED20” value in the data set on Anesthetized Dogs [1] amounted to 48.7 nmol/kg. In addition, the ED (5 mmHg IUP increase) with Anesthetized Dogs [2] stood at 0.0204 µmol/kg.
Regarding `CC(=O)Nc1cccc2c1CCCC2c1c[nH]cn1.O=C(O)/C=C\C(=O)O` (stereo not shown) [Example 16, N-[5,6,7,8-tetrahydro-5-(1H-imidazol-4-yl)-1-naphthalenyl]acetamide, maleate], the “Mean MAP ED20” value with Anesthetized Dogs [1] came out at 220 nmol/kg. In the data set on Anesthetized Dogs [2], the ED (5 mmHg IUP increase) was 0.0684 µmol/kg.
The like results for `CS(=O)(=O)Nc1cccc2c1CCC[C@@H]2c1c[nH]cn1` [Example 10, (−)-N-[(5S)-5-(1H-imidazol-4-yl)-5,6,7,8-tetrahydro-1-naphthalenyl]methanesulfonamide] were, in that order, >300 nmol/kg and > 0.3 µmol/kg.
In the case of `CS(=O)(=O)Nc1cccc2c1OCCC2c1c[nH]cn1.O=C(O)/C=C\C(=O)O` (stereo not shown) [Example 19, N-[4-(1H-imidazol-4-yl)-3,4-dihydro-2H-chromen-8-yl]methanesulfonamide, maleate], in the data set with Anesthetized Dogs [2], the ED (5 mmHg IUP increase) is 0.0671 µmol/kg.
As for `CS(=O)(=O)Nc1cc(Cc2c[nH]cn2)ccc1O` [Example 11, N-[2-hydroxy-5-(1H-imidazol-4-ylmethyl)phenyl]methanesulfonamide, hydrochloride], the pKi in data set [5] was 5.85; in data set [6], 6.51; in data set [3] it was 7.09. Also, the results for the EC50 at α1D (rat aorta), on α1A (rabbit urethra) and on α1B (rat spleen) were 0.692 µM, 0.148 µM and 1.2 µM, respectively.
